Drawing on patent EP0915086A1, “PHENYLSULFONAMIDE DERIVATIVES” (ONO PHARMACEUTICAL CO., LTD., priority 1996, dated 1997), this text covers IC50 for 15 molecules.

pIC50: −log10 of the molar value. Counter-ions that a name gives are not always drawn.

One may read the pIC50 as −log10 of the IC50, conventionally taken in molar units. A higher pIC50 goes with a small IC50.

The first assay concerns the target T1, collagenase (Homo sapiens, UniProt P03956).
T1 construct: endogenous in cells; host or cells: human normal dermal fibroblasts (HNDF)
T1 sequence (P03956 100-469): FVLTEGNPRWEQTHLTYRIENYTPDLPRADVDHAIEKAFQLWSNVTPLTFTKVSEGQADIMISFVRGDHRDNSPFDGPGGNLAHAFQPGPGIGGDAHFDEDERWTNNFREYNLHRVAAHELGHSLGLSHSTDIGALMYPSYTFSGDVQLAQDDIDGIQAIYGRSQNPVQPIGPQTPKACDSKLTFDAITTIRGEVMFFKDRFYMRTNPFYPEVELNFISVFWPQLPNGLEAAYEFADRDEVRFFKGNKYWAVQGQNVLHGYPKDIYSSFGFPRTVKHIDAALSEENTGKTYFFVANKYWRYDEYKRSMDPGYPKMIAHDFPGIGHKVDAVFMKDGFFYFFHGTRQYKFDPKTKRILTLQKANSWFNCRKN
In words: Inhibitory activity against collagenase. It is filed as biochemical. Conditions: procollagenase from human normal dermal fibroblasts (HNDF), activated with trypsin; substrate Ac-Pro-Leu-Gly-[2-mercapto-4-methyl-pentanoyl]-Leu-Gly-OEt; 26 °C, 10 minutes; absorption at 324 nm. As to the method: Trypsin (45 µl; 1 mg/ml) was added to a solution of procollagenase (5 µM) purified from human normal dermal fibloblasts (HNDF) in assay buffer (105 µl). The solution was preincubated in order to activate the enzyme at 37°C for 1 minute.
Trypsin was inactivated by addition of soybean trypsin inhibitor (SBTI; 50 µl). Solutions (20 µl) of synthetic substrate (Ac-Pro-Leu-Gly-[2-mercapto-4-methyl-pentanoyl]-Leu-Gly-OEt) (105 µl; the final concentration […]) with or without various concentrations of the test compound were preincubated for 5 minutes at 26 °C.
To the solutions, activated enzyme (75 µl/tube, 50 µl) prepared above was added. The mixtures were incubated at 26 °C for 10 minutes.
Absorption at 324 nm was measured at 40 points during the 10 minutes.
Vmax value was determined as measured value in 30 points therein.
Molecule `C#Cc1ccc(S(=O)(=O)N[C@H](CCC(=O)NCCc2ccccc2)C(=O)NO)cc1` [Example 6(17), N-Hydroxy-[N-(4-ethynyl)phenylsulfonyl-N'-(2-phenylethyl)-D-glutaminyl]amide] gave a pIC50 of 7.20. Same read-out and setting: the same measure for `C#Cc1ccc(S(=O)(=O)N[C@H](CCC(=O)NC(Cc2ccccc2)c2ccccc2)C(=O)NO)cc1` (stereo partly drawn) [Example 6(19), N-Hydroxy-[N-(4-ethynyl)phenylsulfonyl-N'-(1,2-diphenylethyl)-D-glutaminyl]amide]: 7.19. On the same count and under the same terms, the figure for `CC#Cc1ccc(S(=O)(=O)N(C)[C@H](C)C(=O)NO)cc1` [Example 10(13), N-Hydroxy-[N-methyl-N-[4-(1-propynyl)phenylsulfonyl]-D-alanyl]amide] is 6.54.

Another assay deals with T2, gelatinase A (Homo sapiens, UniProt P08253).
T2 construct: endogenous in cells; host or cells: human normal skin dermal fibroblasts (HNDF)
T2 sequence (P08253 110-660): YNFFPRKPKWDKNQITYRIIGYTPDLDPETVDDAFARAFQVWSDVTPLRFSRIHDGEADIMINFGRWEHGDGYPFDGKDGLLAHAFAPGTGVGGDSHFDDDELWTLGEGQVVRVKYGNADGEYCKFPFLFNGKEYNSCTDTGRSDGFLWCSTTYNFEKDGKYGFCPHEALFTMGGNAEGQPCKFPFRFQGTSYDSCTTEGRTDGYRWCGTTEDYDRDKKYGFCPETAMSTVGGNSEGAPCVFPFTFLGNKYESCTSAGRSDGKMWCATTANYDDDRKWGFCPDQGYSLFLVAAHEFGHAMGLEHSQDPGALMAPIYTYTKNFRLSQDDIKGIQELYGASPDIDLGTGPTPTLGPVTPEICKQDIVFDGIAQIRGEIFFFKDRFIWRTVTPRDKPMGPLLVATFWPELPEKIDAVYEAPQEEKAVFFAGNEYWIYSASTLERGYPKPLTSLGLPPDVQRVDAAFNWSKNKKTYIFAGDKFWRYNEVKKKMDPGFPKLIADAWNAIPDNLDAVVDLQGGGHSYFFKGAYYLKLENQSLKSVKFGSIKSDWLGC
Put plainly: Inhibitory activity against gelatinase A. It is filed as biochemical. As to conditions: progelatinase A from human normal skin dermal fibroblasts (HNDF), activated with APMA; substrate MOCAc-Pro-Leu-Gly-A2pr(Dnp)-Ala-Arg-NH2; 37 °C, 20 minutes; fluorescence Ex 328 nm, Em 393 nm. On the procedure:
Progelatinase A (7 µl; in assay buffer (90 µl)) was purified from human normal skin dermal fibroblasts (HNDF). It was activated by addition of 10 mM p-aminophenyl mercuric acetate (APMA) (10 µl) and preincubation at 37 °C for 1 hour. The solution (890 µl; the final concentration was […]) of the synthetic substrates (MOCAc-Pro-Leu-Gly-A2pr(Dnp)-Ala-Arg-NH2) was mixed with various concentrations of the test compound or a solution without it (10 µl) and the mixture was preincubated at 37 °C for 5 minutes. The activated gelaninase A prepared above (7 µl/tube, 100 µl) was added to the reaction mixture and further incubated at 37 °C for 20 minutes. The enzyme reaction was terminated by addition of 0.1 M sodium acetate buffer (2ml; pH 4.0).
The IC50 value was determined by measuring the fluorescent intensity (Ex = 328 nm, and Em = 393 nm) in this solution.
`Cc1ccc(C=Cc2ccc(S(=O)(=O)N[C@H](C)C(=O)O)cc2)cc1` (stereo in doubt) [Example 3(1), N-[4-[2-(4-Methylphenyl)ethenyl]phenylsulfonyl]-D-alanine] gave a pIC50 of 8.21. Same read-out and setting: the same measure for `Cc1ccc(C#Cc2ccc(S(=O)(=O)N[C@H](C)C(=O)O)cc2)cc1` [Example 2(1), N-[4-[2-(4-Methylphenyl)ethynyl]phenylsulfonyl]-D-alanine]: 7.89; for `Cc1ccc(C#Cc2ccc(S(=O)(=O)N[C@H](Cc3c[nH]c4ccccc34)C(=O)O)cc2)cc1` [Example 2(4), N-[4-[2-(4-Methylphenyl)ethynyl]phenylsulfonyl]-D-tryptophan]: 8.19; for `O=C(O)[C@@H](Cc1c[nH]c2ccccc12)NS(=O)(=O)c1ccc(C#Cc2ccc(-n3ccnc3)cc2)cc1` [Example 2(18), N-[4-[2-(4-Imidazolylphenyl)ethynyl]phenylsulfonyl]-D-tryptophan]: 7.96.

On to `CN(CCc1ccccc1)C(=O)CC[C@@H](NS(=O)(=O)c1ccc(C#Cc2ccc(-n3ccnc3)cc2)cc1)C(=O)O` [Example 2(27), N-[4-[2-(4-Imidazolylphenyl)ethynyl]phenylsulfonyl]-N'-methyl-N'-(2-phenylethyl)-D-glutamine], for which the pIC50 was 8.48. As to `CCCC#Cc1ccc(S(=O)(=O)N[C@H](C)C(=O)NO)cc1` [Example 6(1), N-Hydroxy-[N-[4-(1-pentynyl)phenylsulfonyl]-D-alanyl]amide], the pIC50 was 8.92. Same read-out and setting: the same measure for `Cc1ccc(/C=C/c2ccc(S(=O)(=O)N[C@H](C)C(=O)NO)cc2)cc1` [Example 6(2), N-Hydroxy-[N-[4-[2-(4-methylphenyl)ethenyl]phenylsulfonyl]-D-alanyl]amide]: 9.70; for `Cc1ccc(C#Cc2ccc(S(=O)(=O)N[C@H](C)C(=O)NO)cc2)cc1` [Example 6(4), N-Hydroxy-[N-[4-[2-(4-methylphenyl)ethynyl]phenylsulfonyl]-D-alanyl]amide]: 9.15.

The molecule `CCCCCC#Cc1ccc(S(=O)(=O)N[C@H](C)C(=O)NO)cc1` [Example 6(11), N-Hydroxy-[N-[4-[4-(1-heptynyl)]phenylsulfonyl]-D-alanyl]amide] had a pIC50 of 8.62. This pIC50 is 0.53 log units lower than that of the molecule before. Molecule `C#Cc1ccc(S(=O)(=O)N[C@H](CCC(=O)NCCc2ccccc2)C(=O)NO)cc1` [Example 6(17), N-Hydroxy-[N-(4-ethynyl)phenylsulfonyl-N'-(2-phenylethyl)-D-glutaminyl]amide] had a pIC50 of 9.10.

Turning to `C[C@H](C(=O)NO)N(C)S(=O)(=O)c1ccc(C#Cc2ccc(-n3ccnc3)cc2)cc1` [Example 10(3), N-Hydroxy-[N-methyl-N-[4-[2-[4-(1-imidazolyl)phenyl]ethynyl]phenylsulfonyl]-D-alanyl]amide hydrochloride], the pIC50 is 9.40. `CCCC#Cc1ccc(S(=O)(=O)N(C)[C@H](C)C(=O)NO)cc1` [Example 10(4)] showed a pIC50 of 9.15.

`Cc1ccc(C#Cc2ccc(S(=O)(=O)N(C)[C@H](C)C(=O)NO)cc2)cc1` [Example 10, N-Hydroxy-[N-methyl-N-[4-[2-(4-methylphenyl)ethynyl]phenylsulfonyl]-D-alanyl]amide] had a pIC50 of 8.12.
